Source: PubChem BioAssay (NCI)
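Abbreviation: GI50, concentration required for 50% inhibition of growth. TGI: concentration producing complete growth inhibition.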

Assays:
Experiment in all cases: NCI tumour cell line growth inhibition, 384-well format; in the data active means GI50 below about 0.43 µM; inactive means the rest
[1] = system: MDA-MB-231 breast
[2] = system: NCI-H23 lung
[3] = system: MCF7 breast
[4] = system: HT29 colon
[5] = system: SK-MEL-28 melanoma
[6] = system: OVCAR-3 ovarian
[7] = system: LOX IMVI melanoma
[8] = system: CAKI-1 renal
[9] = system: RXF 393 renal
[10] = system: M14 melanoma
[11] = system: DU-145 prostate
[12] = system: SF-268 CNS
[13] = system: ACHN renal
[14] = system: SNB-75 CNS
[15] = system: A549 NSCLC
[16] = system: HCT-116 colon
[17] = system: RPMI-8226 leukemia
[18] = system: SK-MEL-2 melanoma
[19] = system: SK-MEL-5 melanoma
[20] = system: IGROV1 ovarian
[21] = system: HOP-92 NSCLC
[22] = system: HL-60(TB) leukemia
[23] = system: MALME-3M melanoma
[24] = system: U251 glioblastoma
[25] = system: SW-620 colon
[26] = system: HCC-2998 colon
[27] = system: MOLT-4 leukemia
[28] = system: SR leukemia
[29] = system: SK-OV-3 ovarian
[30] = system: HS 578T breast
[31] = system: PC-3 prostate
[32] = system: NCI/ADR-RES ovarian
[33] = system: A498 renal
[34] = system: HOP-62 NSCLC
[35] = system: OVCAR-8 ovarian
[36] = system: KM12 colon
[37] = system: SN12C renal
[38] = system: OVCAR-4 ovarian
[39] = system: BT-549 breast
[40] = system: K-562 leukemia
[41] = system: NCI-H322M lung
[42] = system: MDA-MB-468 breast
[43] = system: UACC-62 melanoma
[44] = system: EKVX NSCLC
[45] = system: CCRF-CEM leukemia
[46] = system: NCI-H460 NSCLC
[47] = system: SF-539 CNS

C[C@H](NC(=O)CCC(F)(F)F)C(=O)N[C@@H]1C(=O)N(CCO)c2ncccc2-c2ccccc21
> 56.2 µM: TGI [45]
inactive: GI50 [1] > 100 µM | GI50 [2] > 100 µM | GI50 [3] > 100 µM | GI50 [4] > 100 µM | GI50 [5] > 100 µM | GI50 [6] > 100 µM | GI50 [7] 43.3 µM | GI50 [8] > 100 µM | GI50 [9] > 100 µM | GI50 [10] > 100 µM | GI50 [11] > 100 µM | GI50 [12] > 100 µM | GI50 [13] > 100 µM | GI50 [14] > 100 µM | GI50 [15] > 100 µM | GI50 [16] > 100 µM | GI50 [17] 49.8 µM | GI50 [18] > 100 µM | GI50 [19] > 100 µM | GI50 [20] > 100 µM | GI50 [21] > 100 µM | GI50 [22] 54.5 µM | GI50 [23] > 100 µM | GI50 [24] > 100 µM | GI50 [25] 87.1 µM | GI50 [26] > 100 µM | GI50 [27] 29.8 µM | GI50 [28] 64 µM | GI50 [29] > 100 µM | GI50 [30] > 100 µM | GI50 [31] > 100 µM | GI50 [32] > 100 µM | GI50 [33] > 100 µM | GI50 [34] > 100 µM | GI50 [35] > 100 µM | GI50 [36] > 100 µM | GI50 [37] > 100 µM | GI50 [38] > 100 µM | GI50 [39] > 100 µM | GI50 [40] 41.6 µM | GI50 [41] > 100 µM | GI50 [42] > 100 µM | GI50 [43] > 100 µM | GI50 [44] > 100 µM | GI50 [45] 22.9 µM | GI50 [46] > 100 µM | GI50 [47] > 100 µM
> 100 µM: TGI [1] | TGI [2] | TGI [3] | TGI [4] | TGI [5] | TGI [6] | TGI [7] | TGI [8] | TGI [9] | TGI [10] | TGI [11] | TGI [12] | TGI [13] | TGI [14] | TGI [15] | TGI [16] | TGI [17] | TGI [18] | TGI [19] | TGI [20] | TGI [21] | TGI [22] | TGI [23] | TGI [24] | TGI [25] | TGI [26] | TGI [27] | TGI [28] | TGI [29] | TGI [30] | TGI [31] | TGI [32] | TGI [33] | TGI [34] | TGI [35] | TGI [36] | TGI [37] | TGI [38] | TGI [39] | TGI [41] | TGI [42] | TGI [43] | TGI [44] | TGI [46] | TGI [47]
> 91.3 µM: TGI [40]
